In patent US7989495B2, “Compositions and methods for inhibiting NF-κB mediated tumorigenicity and adhesion dependent survival of cancer cells” (University of Utah Research Foundation, priority 2002, dated 2011):
“Also recorded” adds a separate entry of the source.

Assays:
[1] = test system: DLD-1 cells; test: Soft agar colony formation assay (anchorage-independent proliferation); type: cell-based; conditions: 10 μM, 6 days in soft agar
Protocol: (§1) DLD-1, HCT-116, and HT-29 cells were cultured for 6 days in soft agar in the presence of DMSO (control), 10 μM BAY 11-7082, or 10 μM BAY 11-7085. The data points represent the means of colony counts per field (20×) performed in 5 different regions of the culture dishes. The data shown represent a typical result of two separate experiments. FIGS. 2B,C, show athymic mice received subcutaneous injections of HT-29 (B) or HCT-116 (C) cells, followed by […] of BAY 11-7085 (dark bars) or DMSO (white bars) intraperitoneally twice weekly. The bars represent the 25-75% ranges of the tumor volumes and the horizontal lines in the bars are the medians. Using the Kruskal-Wallace statistical test to compare the median tumor volumes between BAY 11-7085 and DMSO yielded a p-value of 0.005 for HT-29 cells but >0.05 for HCT-116 cells.
(§2) Anchorage-independent cell growth is a hallmark of cancer cells and is a good correlate to tumorigencity in vivo. Therefore, the effects of BAY 11-7082 and BAY 11-7085 were examined on colon cancer cell growth using the soft agar colony formation assay.

[2] = test system: HT-29 cells; test: as above; type: cell-based; conditions: 10 μM, 6 days in soft agar
Protocol: as §1, §2

[3] = test system: IκB phosphorylation; conditions: Pierce et al., 1997; cited from earlier work
[4] = test system: adherent HT-29 cells; test: Apoptosis assay (annexin V-FITC / propidium iodide flow cytometry), adherent cells; type: cell-based; conditions: for level of apoptosis (annexin V-positive, propidium iodide-negative cells): doses up to 20 μM (MG-132 20 μM), 24 hours
Protocol: The data points represent the average percent of annexin V-positive, propidium iodide-negative cells (of the total cells counted) from triplicate experiments. The error bars represent the standard error of the means. […] The results shown are a graphic representation of individual flow cytometry results expressed as the percentage of cells that were annexin V-positive of those that excluded propidium iodide. […] An immunoblot of the lysates for cleaved PARP was performed. Each lane represents equal total protein concentrations. […] The cells were allowed to adhere to plastic dishes for 1 hour after which they were washed gently in PBS and stained with crystal violet. The crystal violet stained cells were solubilized in deoxycholate and the absorbance detected in a spectrophotometer at 590 nm. The adherent cells were expressed as a fraction of the controls Each data point represents the average of triplicate experiments and the error bars the standard errors of the means.
(§3) Single cell suspensions were plated at 100,000 cells per well in 24-well plates in media containing DMSO, BAY 11-7082, BAY 11-7085, or MG-132 for 8-24 hours in an incubator. Alternatively, DMSO, BAY 11-7082, BAY 11-7085, or MG-132 were added to cells that were confluent and adherent for several days. The nonadherent cells were aspirated off with the media and spun for 3 minutes at 2,000 rpm in 15 ml polypropylene tubes. The adherent cells were washed twice with PBS, dispersed in trypsin, and spun down for 3 minutes at 2,000 rpm in 15 ml polypropylene tubes. The nonadherent and adherent cells were resuspended in 1× binding buffer (10 mM HEPES/NaOH, pH 7.4, 140 mM NaCl, and 2.5 mM CaCl2) to a final concentration of 10^6 cells/ml. 100 μl of the cell solution were transferred to a 5 ml culture tube and incubated with 5 μl of annexin V-FITC-conjugated monoclonal antibody (Pharmingen) and 10 μl of propidium iodide (from a 50 μg/ml stock solution made in PBS) in the dark at 25° C. for 15 minutes. 400 μl of binding buffer was added to each tube and the cells were analyzed by flow cytometry immediately. The percent of apoptosis was determined as the percent of annexin V-positive, propidium iodide-negative cells of the total cells counted.

[5] = test system: transiently suspended HT-29 cells; test: Apoptosis (annexin V) of transiently suspended cells allowed to readhere; type: cell-based
Protocol: HT-29 cells that were either transiently suspended with trypsin-EDTA or adherent for three days, were treated at time zero with DMSO or 10-100 μM BAY 11-7085. The percent of apoptotic cells was determined using the annexin V flow cytometry assay and graphed versus the dose of BAY 11-7085. […] The cells were fixed and immunostained with an NF-κB p65 subunit monoclonal antibody.
The transiently suspended cells were lysed and allowed to bind to DNA oligonucleotides, containing the NF-κB consensus binding site, that were immobilized to 96-well plates. NF-κB protein bound to the oligonucleotides was detected by an antibody to the p65 subunit that only recognized p65 that is bound to DNA. The positive control was HeLa cells that were stimulated with TNFα A control was performed using excess free NF-κB oligonucleotides (Competitor). […] NF-κB binding activity was determined by the TransAM assay as in FIG. 5A. […] The data shown represent typical results of three separate experiments. […] An immunoblot for COX-2 was performed.
The percentage of apoptotic cells was determined using the annexin V assay. The data points represent the averages of three experiments; bars, ±SE. E. DLD-1 and F. HT-29 cells were transduced with an adenovirus containing the IκB super-repressor construct. After 3 days, the cells were transiently suspended and allowed to readhere in the presence of subapoptotic concentrations of BAY 11-7085 or DMSO (vehicle) for 8 h. The data are expressed as fractions of cells surviving compared with the controls (no adenovirus) and were quantitatively determined by staining the remaining adherent cells with crystal violet.
as §3
Various concentrations of BAY 11-7085 were added to HT-29 cells that were transiently suspended in trypsin-PBS for approximately 15 minutes before replating. The transiently suspended cells were quickly allowed to readhere in order to prevent anoikis. Alternatively, BAY 11-7085 was added to adherent HT-29 cell monolayers.

[6] = HT-29, increasing concentrations, 8 hours, 24 h

| SMILES | inhibition of anchorage-independent proliferation [1] | inhibition of anchorage-independent proliferation [2] | effect on IκB phosphorylation [3] | level of apoptosis (annexin V-positive, propidium iodide-negative cells) ([4]; adherent HT-29) | share of transiently suspended, readhering cells that became apoptotic ([5]; HT-29) | percentage of apoptosis in the non-adherent cell fraction at high vs lower concentrations ([4]; HT-29, 50 and 100 μM, cells annexin V and propidium iodide positive (necrotic)) | percentage of apoptotic cells among cells that became non-adherent [4, 6] | percentage of apoptotic cells among cells that remained adherent [4, 6] | apoptosis of adherent cell monolayers compared with transiently suspended cells ([4]; adherent HT-29, even the highest doses (10-100 μM)) | in vitro apoptotic threshold during readhesion ([5]; HT-29) [µM] | BAY 11-7085-induced apoptosis during readhesion ([5]; HT-29, transiently suspended, treated, allowed to readhere 8 hours) | apoptosis of transiently suspended cells ([5]; HT-29 suspended in trypsin about 15 minutes then replated, 10-100 μM) |
| --- | --- | --- | --- | --- | --- | --- | --- | --- | --- | --- | --- | --- |
| Cc1ccc(S(=O)(=O)/C=C/C#N)cc1 [BAY 11-7082, (2E)-3-(tolysulfonyl)-2-propenenitrile] | significantly inhibited | significantly inhibited | inhibit | caused an increase in the level of apoptosis | vast majority |  |  |  |  |  |  |  |
| CC(C)(C)c1ccc(S(=O)(=O)/C=C/C#N)cc1 [BAY 11-7085, (2E)-3-[4-(tertiarybutylphenyl)sulfonyl]-2-propenenitrile] | significantly inhibited | significantly inhibited | inhibit | relatively greater for MG-132 than BAY 11-7085; also recorded: caused an increase in the level of apoptosis | vast majority | decreased | majority; also recorded: predominantly apoptotic | only a minority | only a relatively small degree of apoptosis | > 20 | showed the same propensity for BAY 11-7085-induced apoptosis | caused a significant increase in apoptosis |
